The IC50 is the point on the concentration scale where inhibition reaches its midpoint.

A value given as a limit tells only on which side of the number the result lay.

For one assay, the system named is A375 cells. In words: Cell growth inhibition (Cell Titer Glo), A375. The format is cell-based. The note with it: Homo sapiens, A-375, 72 h; B-Raf V600E cell line, 3 days. Here is the method: (§1) Compounds are assessed in a variety of cell based assays, employing cells with or without B-Raf V600E mutation, for example cell lines with B-Raf V600E mutation (A375 and COLO205), as well as tumorigenic cell lines with wild-type B-RAF (SW620 and SK-MEL-2). Reagent and assay conditions are as follows:
A375 cells growth medium: • Dulbecco's modified Eagle's medium, 4 mM L-glutamine, 4.5 g/L D-glucose, 10% fetal bovine serum.
(§2) SK-MEL-2 cells growth medium: • Minimum Eagle essential medium, 2 mM L-glutamine, 1.5 g/L sodium bicarbonate, 0.1 mM non-essential amino acids, 1.0 mM sodium pyruvate, 10% fetal bovine serum. • On day 1, cells are seeded in growth media in 200 μL per well in a 96-well polystyrene tissue culture plate at 2,000 cells per well (A375, COLO205, SK-MEL-2) or 5,000 cells per well for SW620, and incubated at 37° C. and 5% CO2 overnight. • On day 2, compound at 4 mM in dimethyl sulfoxide is serially diluted 1:4 (10 μL with 30 μL dimethyl sulfoxide) seven times for a total of 8 concentration points. For each dilution point a 1 μL aliquot is added to a well containing cells (highest dilution point at 20 μM), with 1 μL of dimethyl sulfoxide as a negative control (each sample at 0.5% dimethyl sulfoxide). The cells are incubated for 3 days at 37° C. in 5% CO2. • On day 5, Cell Titer Glo (Promega) is thawed and added 100 μL to each well and the plate shaken for 1-2 minutes. The plates are incubated for 10 minutes at room temperature, then […] signal is read (e.g. on Safire reader). The measured fluoresence correlates directly with cell number, such that the reading as a function of compound concentration is used to determine the IC50 value.
Background: Cellular ATP, detected with luciferase, serves as a proxy for viable cell number.

In the next assay the test system is SK-MEL-2 cells. In words: Cell growth inhibition (Cell Titer Glo), SK-MEL-2. The format is cell-based. The note with it: Homo sapiens, SK-MEL-2, 72 h; wild-type B-RAF cell line, 3 days. How it is done: as §1, §2
The next assay addresses T1, Tec (Homo sapiens, UniProt P42680).
T1 sequence (P42680 1-631): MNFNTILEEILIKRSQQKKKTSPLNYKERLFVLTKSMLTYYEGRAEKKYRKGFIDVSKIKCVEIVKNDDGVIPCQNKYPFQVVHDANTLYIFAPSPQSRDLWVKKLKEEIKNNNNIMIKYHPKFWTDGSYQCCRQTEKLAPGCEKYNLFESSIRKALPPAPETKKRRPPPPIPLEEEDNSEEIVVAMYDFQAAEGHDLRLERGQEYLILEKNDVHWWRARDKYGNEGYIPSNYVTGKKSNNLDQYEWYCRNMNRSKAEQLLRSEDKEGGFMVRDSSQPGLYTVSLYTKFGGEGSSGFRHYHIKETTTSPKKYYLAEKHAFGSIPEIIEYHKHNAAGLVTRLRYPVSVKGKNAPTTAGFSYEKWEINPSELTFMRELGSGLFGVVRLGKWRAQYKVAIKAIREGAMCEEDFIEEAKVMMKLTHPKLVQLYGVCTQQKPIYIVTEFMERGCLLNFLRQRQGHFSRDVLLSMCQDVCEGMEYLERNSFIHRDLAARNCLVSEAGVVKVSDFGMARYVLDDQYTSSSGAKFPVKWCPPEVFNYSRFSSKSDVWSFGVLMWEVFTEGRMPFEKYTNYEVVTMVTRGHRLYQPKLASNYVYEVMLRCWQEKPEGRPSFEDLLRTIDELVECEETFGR
In words: Biochemical inhibitory activity, other protein kinases: Tec. The note with it: for Kinase having IC50 of <1 μM: listing of the kinase means IC50 <1 μM; for Kinase having IC50 of >1 μM: listing of the kinase means IC50 >1 μM.

A further assay has as its target Kit (Homo sapiens, UniProt P10721). In words: Biochemical inhibitory activity, other protein kinases: Kit. Particulars: for Kinase having IC50 of >1 μM: listing of the kinase means IC50 >1 μM.
For the next assay, the target named is Btk (Homo sapiens, UniProt Q06187). In words: Biochemical inhibitory activity, other protein kinases: Btk. Particulars: listing of the kinase means IC50 >1 μM.
Assay [1] has as its system Colo205 colorectal tumor cells with BRaf V600E mutation. In words: Colo205 xenograft mouse model. The format is in vivo. The note with it: female nu/nu mice, 10 mg/kg daily for fourteen days, vs vehicle control. Here is the method: Female nu/nu mice are implanted with Colo-205 trocar fragments from donor mice, sub-cutaneous and high in the axilla. Tumor growth is monitored to approximately 100 mg size, and mice are distributed to treatment groups such that the mean tumor burden within a group is within 10% of the overall mean tumor burden. Mice are treated with vehicle control, positive control or compound (8 mice per group) in 5% DMSO and 95% CMC (1%), with compound dosed at 10 mg/kg daily for fourteen days. Mice are observed daily, with tumor burden and body weights measured twice a week. Animals with tumor burden above 1500-2000 mg and any animals in moribund condition are euthanized. The average tumor growth of vehicle control group mice is compared to the average tumor growth of the test compound mice. Percent tumor growth inhibition is calculated as 100×[(tumor growth control-tumor growth test compound)/tumor growth control].

The target of another assay is T2, CYP2C19 (Homo sapiens, UniProt P33261).
T2 construct: purchased BD Biosciences
In words: CYP inhibition (fluorescent substrate), CYP2C19. Format: in vitro ADME. The note with it: substrate CEC; read-out: Cyp IC50 (μM) 2C19. How it is done:
(§3) CYP (Cytochrome P450) enzymes are the major drug metabolizing enzymes present in the liver. The inhibition of CYP enzyme activity (IC50) for each of CYP1A2, CYP2C19, CYP2C9, CYP2D6, CYP3A4(BFC) and CYP3A4(BQ) is determined for compounds, where inhibition of metabolism of a known substrate leads to a decrease in the fluorescence of the metabolized product. The fluorescence of the product is monitored as a function of compound concentration. Compounds are dissolved in dimethyl sulfoxide to a concentration of 100 mM. These are diluted 1 μL into 82 μL of acetonitrile. An 11 μL aliquot of this solution is then added to 204 μL of cofactor mix (1.3% NADPH Regeneration system Solution A, 1.04% NADPH Regeneration system Solution B from BD Biosciences, 5% acetonitrile and 0.05% dimethyl sulfoxide). These are then serially diluted 1:1 (160 μL to 160 μL co-factor mix) for a total of 10 points. A 10 μL aliquot of this final mixture is dispensed into 384 well assay plates and incubated for 10 minutes at 37° C. […] Assay plates are incubated at 37° C. (CYP1A2-15 min; CYP2C9-45 min; CYP2C19, 2D6 and 3A4-30 min) and read in a Tecan Safire 2 plate reader (CYP1A2, 2C19 and 3A4 409 ex/460 em; CYP2C9 and 2D6 409 ex/530 em). The signal versus compound concentration is used to determine the IC50. The enzymes and substrates for this assay are obtained from BD Biosciences.

The next assay has as its target T3, CYP2C9 (Homo sapiens, UniProt P11712).
T3 construct: purchased BD Biosciences
In words: CYP inhibition (fluorescent substrate), CYP2C9. The format is in vitro ADME. Particulars: substrate MFC; read-out: Cyp IC50 (μM) 2C9. Here is the method:
as §3

Another assay has as its target T4, CYP3A4(BFC) (Homo sapiens, UniProt P08684).
T4 construct: purchased BD Biosciences
In words: CYP inhibition (fluorescent substrate), CYP3A4(BFC). The note with it: read-out: Cyp IC50 (μM) 3A4(BFC). The format is in vitro ADME. How it is done:
as §3

Sequence of Kit (P10721 26-976, species assumed): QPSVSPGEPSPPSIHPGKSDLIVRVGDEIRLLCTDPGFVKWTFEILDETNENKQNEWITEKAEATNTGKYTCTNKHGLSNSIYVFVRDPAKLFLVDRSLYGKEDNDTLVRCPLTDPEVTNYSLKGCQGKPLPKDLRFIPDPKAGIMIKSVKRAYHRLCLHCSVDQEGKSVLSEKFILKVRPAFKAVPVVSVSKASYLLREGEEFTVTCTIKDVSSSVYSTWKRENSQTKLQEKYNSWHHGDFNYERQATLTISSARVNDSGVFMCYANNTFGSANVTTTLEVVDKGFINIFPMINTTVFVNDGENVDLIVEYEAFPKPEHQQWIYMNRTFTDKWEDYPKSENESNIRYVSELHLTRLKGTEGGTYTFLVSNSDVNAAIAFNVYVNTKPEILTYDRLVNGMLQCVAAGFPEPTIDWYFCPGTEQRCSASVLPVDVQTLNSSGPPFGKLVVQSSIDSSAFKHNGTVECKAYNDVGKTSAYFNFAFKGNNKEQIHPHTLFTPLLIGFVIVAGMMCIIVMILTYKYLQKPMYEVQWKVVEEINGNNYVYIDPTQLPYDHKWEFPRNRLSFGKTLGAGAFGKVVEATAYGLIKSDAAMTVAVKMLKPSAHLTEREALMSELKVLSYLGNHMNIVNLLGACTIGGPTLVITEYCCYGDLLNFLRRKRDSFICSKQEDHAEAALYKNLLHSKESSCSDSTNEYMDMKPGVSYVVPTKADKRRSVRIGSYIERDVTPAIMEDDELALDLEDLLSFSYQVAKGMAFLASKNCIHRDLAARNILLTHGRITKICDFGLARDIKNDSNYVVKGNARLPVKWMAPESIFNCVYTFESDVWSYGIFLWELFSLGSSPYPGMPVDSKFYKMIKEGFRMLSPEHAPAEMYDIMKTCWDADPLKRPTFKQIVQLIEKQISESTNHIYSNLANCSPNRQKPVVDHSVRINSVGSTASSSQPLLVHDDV
T4 sequence (P08684 whole entry): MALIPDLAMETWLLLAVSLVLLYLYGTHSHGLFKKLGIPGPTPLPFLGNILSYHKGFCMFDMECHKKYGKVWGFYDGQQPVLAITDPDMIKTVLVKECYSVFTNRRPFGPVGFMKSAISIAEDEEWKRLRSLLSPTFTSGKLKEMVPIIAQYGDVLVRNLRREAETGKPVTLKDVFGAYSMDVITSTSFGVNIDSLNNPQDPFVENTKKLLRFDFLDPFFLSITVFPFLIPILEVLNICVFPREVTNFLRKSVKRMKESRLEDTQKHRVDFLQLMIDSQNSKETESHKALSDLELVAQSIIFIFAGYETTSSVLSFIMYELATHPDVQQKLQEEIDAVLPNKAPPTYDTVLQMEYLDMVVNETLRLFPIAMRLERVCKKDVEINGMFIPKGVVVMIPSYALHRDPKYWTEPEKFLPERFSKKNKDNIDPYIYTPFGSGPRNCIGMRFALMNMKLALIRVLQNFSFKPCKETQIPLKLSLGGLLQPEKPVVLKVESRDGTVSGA
Sequence of Btk (Q06187 whole entry, species assumed, the tested form may be a part): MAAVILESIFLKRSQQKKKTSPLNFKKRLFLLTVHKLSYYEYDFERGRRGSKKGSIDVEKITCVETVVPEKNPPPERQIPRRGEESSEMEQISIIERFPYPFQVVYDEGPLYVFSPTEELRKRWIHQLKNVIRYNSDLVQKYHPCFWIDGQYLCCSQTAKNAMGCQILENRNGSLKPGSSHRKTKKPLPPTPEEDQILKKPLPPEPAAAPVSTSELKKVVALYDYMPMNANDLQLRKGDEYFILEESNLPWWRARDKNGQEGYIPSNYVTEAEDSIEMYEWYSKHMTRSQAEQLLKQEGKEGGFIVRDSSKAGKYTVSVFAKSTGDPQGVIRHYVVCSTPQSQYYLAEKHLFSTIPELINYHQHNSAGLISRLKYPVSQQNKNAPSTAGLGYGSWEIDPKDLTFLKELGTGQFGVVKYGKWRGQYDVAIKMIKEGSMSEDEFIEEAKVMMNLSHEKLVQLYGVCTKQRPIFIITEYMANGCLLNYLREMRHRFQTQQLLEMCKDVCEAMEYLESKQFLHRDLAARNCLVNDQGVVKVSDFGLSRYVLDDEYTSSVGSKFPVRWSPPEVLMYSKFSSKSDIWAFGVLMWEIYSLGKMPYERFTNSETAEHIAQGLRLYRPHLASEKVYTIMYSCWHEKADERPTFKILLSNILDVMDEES
T2 sequence (P33261 whole entry): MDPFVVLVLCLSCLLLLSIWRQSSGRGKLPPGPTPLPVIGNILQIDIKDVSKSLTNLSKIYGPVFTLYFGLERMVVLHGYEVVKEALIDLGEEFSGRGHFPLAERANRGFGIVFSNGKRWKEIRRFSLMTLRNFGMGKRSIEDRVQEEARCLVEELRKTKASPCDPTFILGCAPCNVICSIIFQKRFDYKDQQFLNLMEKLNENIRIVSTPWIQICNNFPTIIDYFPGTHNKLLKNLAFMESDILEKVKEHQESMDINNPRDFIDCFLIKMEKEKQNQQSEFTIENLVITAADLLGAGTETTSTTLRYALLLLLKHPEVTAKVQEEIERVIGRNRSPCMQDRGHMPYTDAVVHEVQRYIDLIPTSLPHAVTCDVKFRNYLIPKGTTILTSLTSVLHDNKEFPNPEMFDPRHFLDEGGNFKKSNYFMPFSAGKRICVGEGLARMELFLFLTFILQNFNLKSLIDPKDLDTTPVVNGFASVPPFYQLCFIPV
T3 sequence (P11712 whole entry): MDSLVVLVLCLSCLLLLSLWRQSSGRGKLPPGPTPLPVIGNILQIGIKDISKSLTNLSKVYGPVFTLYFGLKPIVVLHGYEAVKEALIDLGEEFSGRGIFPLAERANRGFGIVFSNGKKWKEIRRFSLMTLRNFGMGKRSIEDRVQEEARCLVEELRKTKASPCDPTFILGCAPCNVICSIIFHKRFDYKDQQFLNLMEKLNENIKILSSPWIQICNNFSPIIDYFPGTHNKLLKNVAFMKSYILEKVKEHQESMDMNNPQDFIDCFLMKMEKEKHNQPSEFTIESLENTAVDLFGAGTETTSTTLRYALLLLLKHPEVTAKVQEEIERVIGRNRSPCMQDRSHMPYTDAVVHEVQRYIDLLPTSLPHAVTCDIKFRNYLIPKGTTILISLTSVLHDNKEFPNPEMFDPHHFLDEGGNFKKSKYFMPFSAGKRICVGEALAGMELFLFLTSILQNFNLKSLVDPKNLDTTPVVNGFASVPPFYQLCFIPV

As for `CCCS(=O)(=O)Nc1ccc(F)c(C(=O)c2c[nH]c3ncc(-c4cnc(OC)nc4)cc23)c1F` [Compound P-0001, propane-1-sulfonic acid {2,4-difluoro-3-[5-(2-methoxy-pyrimidin-5-yl)-1H-pyrrolo[2,3-b]pyridine-3-carbonyl]-phenyl}-amide], the IC50 in the assay on A375 cells is below 1 µM; in the assay with SK-MEL-2 cells it was above 5 µM; on CYP2C19, above 10 µM; at CYP2C9, 5 to 10 µM; at CYP3A4(BFC) it was above 10 µM. Moreover, at Tec, the “Kinase having IC50 of <1 μM” value is “Tec”. The “Kinase having IC50 of >1 μM” value on Kit is “Kit”; on Btk it was “Btk”. Besides, in assay [1], the “% Tumor growth inhibition” value was 43%.

Regarding `CCCS(=O)(=O)Nc1ccc(F)c(C(=O)c2c[nH]c3ncc(C#N)cc23)c1F` [Compound P-0002, propane-1-sulfonic acid [3-(5-cyano-1H-pyrrolo[2,3-b]pyridine-3-carbonyl)-2,4-difluoro-phenyl]-amide], the IC50 is below 1 µM in the assay on A375 cells; above 20 µM with SK-MEL-2 cells; 5 to 10 µM at CYP2C19; 5 to 10 µM at CYP2C9; above 10 µM on CYP3A4(BFC). The “Kinase having IC50 of >1 μM” value is “Tec” at Tec, “Kit” on Kit and “Btk” at Btk. Moreover, in assay [1], the “% Tumor growth inhibition” value came out at 80%.

For `CCCS(=O)(=O)Nc1cccc(C(=O)c2c[nH]c3ncc(C#N)cc23)c1F` [Compound P-0003, propane-1-sulfonic acid [3-(5-cyano-1H-pyrrolo[2,3-b]pyridine-3-carbonyl)-2-fluoro-phenyl]-amide], the IC50 is below 2 µM with A375 cells; above 20 µM with SK-MEL-2 cells; above 10 µM at CYP2C19; above 10 µM on CYP2C9; above 10 µM on CYP3A4(BFC). Besides, the “Kinase having IC50 of >1 μM” value on Kit is recorded as “Kit”; on Btk, “Btk”. For the same compound, the “% Tumor growth inhibition” value in [1] was determined as 91%.

Regarding `N#Cc1cnc2[nH]cc(C(=O)c3c(F)ccc(NS(=O)(=O)c4cc(F)ccc4F)c3F)c2c1` [Compound P-0004, N-[3-(5-cyano-1H-pyrrolo[2,3-b]pyridine-3-carbonyl)-2,4-difluoro-phenyl]-2,5-difluoro-benzenesulfonamide], the IC50 with A375 cells is below 1 µM; with SK-MEL-2 cells it was above 20 µM; on CYP2C19, above 10 µM; at CYP2C9 it was above 10 µM; at CYP3A4(BFC), 5 to 10 µM. In addition, the figures for the “Kinase having IC50 of >1 μM” value on Tec and on Btk were “Tec” and “Btk”, respectively. The “Kinase having IC50 of <1 μM” value at Kit (listing of the kinase means IC50 <1 μM) is recorded as “Kit”. For the same compound, the “% Tumor growth inhibition” value in [1] worked out at 103%.

Consider `N#Cc1cnc2[nH]cc(C(=O)c3c(F)ccc(NS(=O)(=O)c4cccc(F)c4)c3F)c2c1` [Compound P-0005, N-[3-(5-cyano-1H-pyrrolo[2,3-b]pyridine-3-carbonyl)-2,4-difluoro-phenyl]-3-fluoro-benzenesulfonamide], for which the IC50 with A375 cells was below 1 µM; in the assay with SK-MEL-2 cells, above 20 µM; at CYP2C19, above 10 µM; at CYP2C9 it was 5 to 10 µM; at CYP3A4(BFC) it was above 10 µM. Also, the figures for the “Kinase having IC50 of >1 μM” value on Tec, on Kit and on Btk were “Tec”, “Kit” and “Btk”, respectively. In addition, in assay [1], the “% Tumor growth inhibition” value is on record as 88%.

In the case of `N#Cc1cnc2[nH]cc(C(=O)c3c(F)ccc(NS(=O)(=O)N4CCCC4)c3F)c2c1` [Compound P-0006, pyrrolidine-1-sulfonic acid [3-(5-cyano-1H-pyrrolo[2,3-b]pyridine-3-carbonyl)-2,4-difluoro-phenyl]-amide], the IC50 in the assay on A375 cells is below 1 µM; on CYP2C19 it was above 10 µM; on CYP2C9, above 10 µM; on CYP3A4(BFC), above 10 µM. For the same compound, at Tec, the “Kinase having IC50 of <1 μM” value is “Tec”. Besides, the entries for the “Kinase having IC50 of >1 μM” value at Kit and at Btk were “Kit” and “Btk”, respectively. The “% Tumor growth inhibition” value in assay [1] turned out to be 82%.

In the case of `CN(C)S(=O)(=O)Nc1ccc(F)c(C(=O)c2c[nH]c3ncc(C#N)cc23)c1F` [Compound P-0007, N,N-dimethylamino-sulfonic acid [3-(5-cyano-1H-pyrrolo[2,3-b]pyridine-3-carbonyl)-2,4-difluoro-phenyl]-amide], the IC50 in the assay with A375 cells is below 2 µM; in the assay with SK-MEL-2 cells, above 20 µM; at CYP2C19, above 10 µM; at CYP2C9, above 10 µM; at CYP3A4(BFC), 5 to 10 µM. Besides, the results for the “Kinase having IC50 of >1 μM” value at Tec, on Kit and at Btk were “Tec”, “Kit” and “Btk”, respectively. Also, the “% Tumor growth inhibition” value in [1] was 86%.

Values taken from patent US8901301B2, “Pyrrolo[2,3-]pyridine kinase inhibitors” (Plexxikon Inc., priority 2009, dated 2014).
